The target in one series is T1, α-glucosidase (Saccharomyces cerevisiae, UniProt P53341).
T1 construct: purchased Sigma-Aldrich, Munich, Germany
The series can be described thus: biochemical. In kind it is biochemical. The conditions noted are these: for inhibition at 200 µM: read-out: Inhibitions (%); for effectiveness as inhibitor compared to acarbose: ratio of IC50 values vs acarbose. The protocol: In vitro analysis of all the synthesized compounds was performed in order to justify the validity of in silico outcomes. Results were found in good agreement with the in silico study. […] A general spectrophotometric technique was used to perform the α-glucosidase inhibition assay with slight modifications. […] The experiment was repeated thrice and inhibition percentages were calculated using the following formula. % Inhibition = [(A control − A sample) / A control] × 100(1) where ‘A’ stands for absorbance.

Read-outs that look alike come from different tables or passages of the source.

T1 sequence (P53341 whole entry): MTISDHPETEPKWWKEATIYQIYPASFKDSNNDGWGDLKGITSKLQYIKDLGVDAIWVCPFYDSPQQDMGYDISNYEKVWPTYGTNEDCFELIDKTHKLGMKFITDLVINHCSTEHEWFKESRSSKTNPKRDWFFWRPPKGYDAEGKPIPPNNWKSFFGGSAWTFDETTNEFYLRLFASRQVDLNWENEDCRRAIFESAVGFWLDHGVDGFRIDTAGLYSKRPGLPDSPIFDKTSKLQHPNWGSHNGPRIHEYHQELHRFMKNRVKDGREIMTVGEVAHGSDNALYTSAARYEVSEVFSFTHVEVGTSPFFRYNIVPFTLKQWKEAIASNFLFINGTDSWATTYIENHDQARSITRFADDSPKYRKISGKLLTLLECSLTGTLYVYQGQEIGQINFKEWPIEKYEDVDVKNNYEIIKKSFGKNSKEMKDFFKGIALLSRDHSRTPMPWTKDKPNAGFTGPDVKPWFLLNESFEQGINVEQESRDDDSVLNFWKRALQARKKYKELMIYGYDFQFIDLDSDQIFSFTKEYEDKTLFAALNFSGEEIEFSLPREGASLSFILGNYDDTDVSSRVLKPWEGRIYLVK

A word on the IC50: it is the concentration that gives 50% inhibition. For the compound “2-(3-(4-Bromobenzoyl)-4-hydroxy-1,1-dioxido-2H-benzo[e][1,2]thiazin-2-yl)-N-(4-methoxyphenyl)acetamide [Compound 12m]”, the IC50 on α-glucosidase (PNPG substrate, pH 6.8, 37 °C, read-out: IC50) turned out to be 58.5 µM. The “Inhibitions (%)” value at α-glucosidase (at 200 μM concentration) was 65%.

The term melting point denotes the temperature, or range, at which the solid turns liquid. Consider `O=C(C1=C(O)c2ccccc2S(=O)(=O)N1)c1ccccc1` [Compound 9a, (4-Hydroxy-1,1-dioxido-2H-benzo[e][1,2]thiazin-3-yl)(phenyl)methanone], for which the melting point fell in the range of 156 to 157 °C. Further, at α-glucosidase, the inhibition at 200 µM was 20%.

On to `O=C(C1=C(O)c2ccccc2S(=O)(=O)N1)c1ccc(Br)cc1` [Compound 9b, (4-Bromophenyl)(4-hydroxy-1,1-dioxido-2H-benzo[e][1,2]thiazin-3-yl)methanone], for which the melting point was in the range of 144 to 146 °C. At α-glucosidase, the IC50 was above 100 µM and the inhibition at 200 µM is 55%.

In turn, `O=C(CN1C(C(=O)c2ccccc2)=C(O)c2ccccc2S1(=O)=O)Nc1ccccc1Cl` [Compound 11a, 2-(3-Benzoyl-4-hydroxy-1,1-dioxido-2H-benzo[e][1,2]thiazin-2-yl)-N-(2-chlorophenyl)acetamide] gave a melting point of 141 to 142 °C. In addition, the inhibition at 200 µM on α-glucosidase is 39%.

As to `O=C(CN1C(C(=O)c2ccccc2)=C(O)c2ccccc2S1(=O)=O)Nc1cccc(Cl)c1` [Compound 11b, 2-(3-Benzoyl-4-hydroxy-1,1-dioxido-2H-benzo[e][1,2]thiazin-2-yl)-N-(3-chlorophenyl)acetamide], the melting point lay within 182 to 184 °C. The inhibition at 200 µM at α-glucosidase amounted to 32%.

Compound `O=C(CN1C(C(=O)c2ccccc2)=C(O)c2ccccc2S1(=O)=O)Nc1ccc(Cl)cc1` [Compound 11c, 2-(3-Benzoyl-4-hydroxy-1,1-dioxido-2H-benzo[e][1,2]thiazin-2-yl)-N-(4-chlorophenyl)acetamide] gave a melting point of 146 to 148 °C. Further, at α-glucosidase, the IC50 was found to be 30.6 µM and the inhibition at 200 µM came out at 79%.

`Cc1ccccc1NC(=O)CN1C(C(=O)c2ccccc2)=C(O)c2ccccc2S1(=O)=O` [Compound 11d, 2-(3-Benzoyl-4-hydroxy-1,1-dioxido-2H-benzo[e][1,2]thiazin-2-yl)-N-(o-tolyl)acetamide] showed a melting point of 165 to 167 °C. Moreover, the inhibition at 200 µM on α-glucosidase amounted to 10%.

The compound `Cc1cccc(NC(=O)CN2C(C(=O)c3ccccc3)=C(O)c3ccccc3S2(=O)=O)c1` [Compound 11e, 2-(3-Benzoyl-4-hydroxy-1,1-dioxido-2H-benzo[e][1,2]thiazin-2-yl)-N-(m-tolyl)acetamide] gave a melting point of 177 to 178 °C. The inhibition at 200 µM at α-glucosidase was found to be 15%.

`Cc1ccc(NC(=O)CN2C(C(=O)c3ccccc3)=C(O)c3ccccc3S2(=O)=O)cc1` [Compound 11f, 2-(3-Benzoyl-4-hydroxy-1,1-dioxido-2H-benzo[e][1,2]thiazin-2-yl)-N-(p-tolyl)acetamide]: the melting point lay in the range of 136 to 137 °C. Also, on α-glucosidase, the inhibition at 200 µM is 37%.

In turn, `O=C(CN1C(C(=O)c2ccccc2)=C(O)c2ccccc2S1(=O)=O)Nc1ccccc1[N+](=O)[O-]` [Compound 11g, 2-(3-Benzoyl-4-hydroxy-1,1-dioxido-2H-benzo[e][1,2]thiazin-2-yl)-N-(2-nitrophenyl)acetamide] registered a melting point of 157 to 158 °C. Further, on α-glucosidase, the IC50 is 88.1 µM and the inhibition at 200 µM came to 58%.

In turn, `O=C(CN1C(C(=O)c2ccccc2)=C(O)c2ccccc2S1(=O)=O)Nc1cccc([N+](=O)[O-])c1` [Compound 11h, 2-(3-Benzoyl-4-hydroxy-1,1-dioxido-2H-benzo[e][1,2]thiazin-2-yl)-N-(3-nitrophenyl)acetamide] yielded a melting point of 170 to 172 °C. Further, at α-glucosidase, inhibition was half-maximal at 47.1 µM (IC50) and the inhibition at 200 µM came to 63%.

For `O=C(CN1C(C(=O)c2ccccc2)=C(O)c2ccccc2S1(=O)=O)Nc1ccc([N+](=O)[O-])cc1` [Compound 11i, 2-(3-Benzoyl-4-hydroxy-1,1-dioxido-2H-benzo[e][1,2]thiazin-2-yl)-N-(4-nitrophenyl)acetamide], the melting point fell in the range of 194 to 195 °C. On α-glucosidase, the IC50 was 40.4 µM and the inhibition at 200 µM turned out to be 77%.

`O=C(CN1C(C(=O)c2ccccc2)=C(O)c2ccccc2S1(=O)=O)Nc1cccc(Br)c1` [Compound 11j, 2-(3-Benzoyl-4-hydroxy-1,1-dioxido-2H-benzo[e][1,2]thiazin-2-yl)-N-(3-bromophenyl)acetamide] returned a melting point of 163 to 166 °C. Moreover, on α-glucosidase, the IC50 was above 100 µM and the inhibition at 200 µM is 50%.

The compound `O=C(CN1C(C(=O)c2ccccc2)=C(O)c2ccccc2S1(=O)=O)Nc1ccc(Br)cc1` [Compound 11k, 2-(3-Benzoyl-4-hydroxy-1,1-dioxido-2H-benzo[e][1,2]thiazin-2-yl)-N-(4-bromophenyl)acetamide] registered a melting point of 150 to 153 °C. In addition, at α-glucosidase, the inhibition at 200 µM amounted to 13%.

As to `COc1ccccc1NC(=O)CN1C(C(=O)c2ccccc2)=C(O)c2ccccc2S1(=O)=O` [Compound 11l, 2-(3-Benzoyl-4-hydroxy-1,1-dioxido-2H-benzo[e][1,2]thiazin-2-yl)-N-(2-methoxyphenyl)acetamide], the melting point fell in the range of 199 to 200 °C. Further, on α-glucosidase, the IC50 is above 100 µM and the inhibition at 200 µM came out at 54%.

As to `COc1ccc(NC(=O)CN2C(C(=O)c3ccccc3)=C(O)c3ccccc3S2(=O)=O)cc1` [Compound 11m, 2-(3-Benzoyl-4-hydroxy-1,1-dioxido-2H-benzo[e][1,2]thiazin-2-yl)-N-(4-methoxyphenyl)acetamide], the melting point is 164 to 165 °C. Also, at α-glucosidase, the inhibition at 200 µM stood at 69%.

`O=C(CN1C(C(=O)c2ccc(Br)cc2)=C(O)c2ccccc2S1(=O)=O)Nc1ccccc1Cl` [Compound 12a, 2-(3-(4-Bromobenzoyl)-4-hydroxy-1,1-dioxido-2H-benzo[e][1,2]thiazin-2-yl)-N-(2-chlorophenyl)acetamide] displayed a melting point of 180 to 181 °C. On α-glucosidase, the IC50 amounted to 18.2 µM, the “effectiveness as inhibitor compared to acarbose” value is on record as “roughly three-fold” and the inhibition at 200 µM is 79%.

The compound `O=C(CN1C(C(=O)c2ccc(Br)cc2)=C(O)c2ccccc2S1(=O)=O)Nc1cccc(Cl)c1` [Compound 12b, 2-(3-(4-Bromobenzoyl)-4-hydroxy-1,1-dioxido-2H-benzo[e][1,2]thiazin-2-yl)-N-(3-chlorophenyl)acetamide] returned a melting point of 148 to 150 °C. Besides, the inhibition at 200 µM on α-glucosidase worked out at 47%.

`O=C(CN1C(C(=O)c2ccc(Br)cc2)=C(O)c2ccccc2S1(=O)=O)Nc1ccc(Cl)cc1` [Compound 12c, 2-(3-(4-Bromobenzoyl)-4-hydroxy-1,1-dioxido-2H-benzo[e][1,2]thiazin-2-yl)-N-(4-chlorophenyl)acetamide] registered a melting point of 181 to 184 °C. At α-glucosidase, the IC50 is above 100 µM and the inhibition at 200 µM turned out to be 61%.

`Cc1ccccc1NC(=O)CN1C(C(=O)c2ccc(Br)cc2)=C(O)c2ccccc2S1(=O)=O` [Compound 12d, 2-(3-(4-Bromobenzoyl)-4-hydroxy-1,1-dioxido-2H-benzo[e][1,2]thiazin-2-yl)-N-(o-tolyl)acetamide] gave a melting point of 193 to 194 °C. Besides, at α-glucosidase, the IC50 was determined as 20.8 µM, the “effectiveness as inhibitor compared to acarbose” value was “roughly three-fold” and the inhibition at 200 µM was 76%.
